pIC50: −log10 of the molar value. Square brackets hold non-standard residues; d marks the D form. Peptide text beside a SMILES is read from it. * marks the point of attachment. ξ: configuration not given here. Hydrocinnamoyl = O=C(CCc1ccccc1)*; Thz = O=C(O)[C@@H]1CSCN1; Cbz = O=C(OCc1ccccc1)*; ξPip = O=C(O)C1CCCCN1; CH2Cl = ClC*

One assay deals with T1, prolyl endopeptidase (Bos taurus, UniProt Q9XTA2).
T1 construct: purified from bovine brain; from tissue; host or cells: bovine brain
T1 sequence (Q9XTA2 whole entry): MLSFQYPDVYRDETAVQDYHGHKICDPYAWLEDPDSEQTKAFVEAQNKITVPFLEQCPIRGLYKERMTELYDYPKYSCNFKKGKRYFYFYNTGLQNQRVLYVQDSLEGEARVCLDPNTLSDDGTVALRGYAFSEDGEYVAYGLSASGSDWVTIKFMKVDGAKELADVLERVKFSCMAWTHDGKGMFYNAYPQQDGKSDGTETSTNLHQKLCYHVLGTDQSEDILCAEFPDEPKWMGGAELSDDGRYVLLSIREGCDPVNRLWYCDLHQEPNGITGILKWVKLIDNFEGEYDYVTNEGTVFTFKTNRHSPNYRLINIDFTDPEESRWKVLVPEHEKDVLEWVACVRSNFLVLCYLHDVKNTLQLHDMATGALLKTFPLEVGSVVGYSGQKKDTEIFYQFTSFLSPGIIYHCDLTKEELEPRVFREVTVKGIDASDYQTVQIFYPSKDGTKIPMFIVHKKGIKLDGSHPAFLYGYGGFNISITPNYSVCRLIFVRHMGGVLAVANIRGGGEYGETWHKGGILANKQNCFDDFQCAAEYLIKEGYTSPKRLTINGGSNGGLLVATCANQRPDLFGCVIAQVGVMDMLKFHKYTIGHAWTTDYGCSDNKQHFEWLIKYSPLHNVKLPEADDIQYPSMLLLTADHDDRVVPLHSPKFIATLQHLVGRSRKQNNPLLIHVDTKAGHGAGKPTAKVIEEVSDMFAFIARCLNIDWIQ
The experiment in a line: Prolyl endopeptidase inhibitory activity in vitro. Format: biochemical, bovine.
Settings: not given
As for the experimental part: Inhibitory activity of prolyl endopeptidase in vitro was measured by the following test system.
A mixed solution of 20 mM tris-HCl buffer (pH 7.5; 935 μl; containing 10 mM EDTA and 10 mM mercaptoethanol), a solution of a compound of the present invention in DMSO (10 μl) and a solution of prolyl endopeptidase which was purified from bovine brain (0.13 unit; prepared by the method described in J. Biochem., 94, 1179 (1983)) in tris-HCl buffer (15 μl) was preincubated for 15 mins at 37° C.
To the solution, 5 mM of N-benzyloxycarbonyl-glycyl-prolyl-p-nitroanilide (40 μl) in a mixture of 40% dioxane--60% water was added. Ths solution was incubated for 1 min at the same temperature.
Optical absorption (a1) at 405 nm of the solution, and optical absorption (a2) at 405 nm of the solution after more 30 mins' incubation at 37° C. were measured.
Optical absorptions (b1 and b2) of the solutions using DMSO instead of the solution of the compound of the present invention were also measured.
Inhibitory ratio was calculated by the following expression and IC50 (required concentration for 50% inhibition) was obtained (See Protein, Nucleic acid and Enzyme 25(6), 513, 1980.). [formula]
With `O=C[C@@H]1CSCN1C(=O)/C=C/c1ccc(CCCCCc2ccccc2)cc1` [1 (g), (4R)3-[4-(5-phenylpentyl)cinnamoyl]thiazolidin-4-al], the pIC50 is 5.32.

The same assay, now with this note: in vitro; purified from bovine brain; pH 7.5, 37° C.; substrate N-benzyloxycarbonyl-glycyl-prolyl-p-nitroanilide; 405 nm; read-out: Concentration for 50% inhibition IC50.
In the case of `O=C[C@@H]1CSCN1C(=O)CCCCCCCCCc1ccccc1` [1 (b), (4R)3-(10-phenyldecanoyl) thiazolidin-4-al], the pIC50 was 6.14. Take `CC(C)C(CCCCCc1ccccc1)C(=O)N1CSC[C@H]1C=O` (stereo partly drawn) [1 (c), (4R)3-(2-isopropyl-7-phenylheptanoyl)thiazolidin-7-al]: the pIC50 is 7.06. With `O=C[C@@H]1CSCN1C(=O)CCCOCc1ccccc1` [1 (i), (4R)3-(4-benzyloxybutyryl) thiazolidin-4-al], the pIC50 is 5.09. As for `O=C[C@@H]1CSCN1C(=O)CCC(=O)CCCc1ccccc1` [1 (k), (4R)3-(4-oxo-7-phenylheptanoyl) thiazolidin-4-al], the pIC50 was 7.80. On the same count and under the same terms, to `O=C[C@@H]1CSCN1C(=O)C1CCC[C@H]1C(=O)CCc1ccccc1` (stereo partly drawn) [1 (l), (4R)3-[(2R)2-(3-phenylpropionyl)cyclopentanecarbonyl]thiazolidin-4-al] belongs 7.66; to `O=C[C@@H]1CSCN1C(=O)C1CCCCN1C(=O)CCc1ccccc1` (stereo partly drawn) [1 (n), (4R)3-[1-(3-phenylpropionyl)piperidine-2-carbonyl]thiazolidin-4-al] (Hydrocinnamoyl-[ξPip]-[Thz]-aldehyde), 7.70; to `CC(C)C(NC(=O)CCCc1ccccc1)C(=O)N1CSC[C@H]1C=O` (stereo partly drawn) [1 (q), (4R)3-[2-(4-phenylbutyrylamino)-3-methylbutyryl]thiazolidin-4-al], 8.24. On to `O=C[C@@H]1CSCN1C(=O)CCC(=O)N(Cc1ccccc1)c1ccccc1` [1 (s), (4R)3-[3-(Nbenzyl-Nphenylcarbamoyl)propionyl]thiazolidin-4-al], for which the pIC50 is 8.17. Regarding `COc1ccc(CNC(=O)CCC(=O)N2CSC[C@H]2C=O)cc1` [1 (t), (4R)3-[3-[N(4-methoxybenzyl)carbamoyl]propionyl]thiazolidin-4-al], the pIC50 was 7.46. Same read-out and setting: with `O=C[C@@H]1CSCN1C(=O)C1CCCC1C(=O)NCc1ccccc1` (stereo partly drawn) [1 (v), (4R)3-[2-[Nbenzylcarbamoyl)cyclopentanecarbonyl]thiazolidin-4-al] the figure was 7.08.

The next assay relates to prolyl endopeptidase.
Assay: not given
Conditions: See J. Neurochem., 41, 69(1983); cited from earlier work.
As for `O=C(NCC(=O)N1CCC[C@H]1C(=O)CCl)OCc1ccccc1` [N-benzyloxycarbonyl-glycyl-L-prolyl-chloromethane] (Cbz-Gly-Pro-CH2Cl), the “inhibition of prolyl endopeptidase (in words)” value is given as “strongly inhibit”.

The values are drawn from patent publication US4857537A, “Novel thiazolidine derivatives” (Ono Pharmaceutical Co., Ltd., priority 1987, dated 1989).
